According to patent publication US10383837B2, “Compositions and methods for modulating metabolic pathways” (NuSirt Sciences, Inc., priority 2011, dated 2019):

Tests used:
SIRT1 [1] = target: T1, SIRT1 (Mus musculus, UniProt Q923E4); assay: Adipose tissue Sirt1 activity in diet-induced obese mice; format: in vivo, c57/BL6 mice; design: from tissue; host or cells: adipose tissue of diet-induced obese c57/BL6 mice; conditions: 6 weeks
T1 sequence (Q923E4 1-737): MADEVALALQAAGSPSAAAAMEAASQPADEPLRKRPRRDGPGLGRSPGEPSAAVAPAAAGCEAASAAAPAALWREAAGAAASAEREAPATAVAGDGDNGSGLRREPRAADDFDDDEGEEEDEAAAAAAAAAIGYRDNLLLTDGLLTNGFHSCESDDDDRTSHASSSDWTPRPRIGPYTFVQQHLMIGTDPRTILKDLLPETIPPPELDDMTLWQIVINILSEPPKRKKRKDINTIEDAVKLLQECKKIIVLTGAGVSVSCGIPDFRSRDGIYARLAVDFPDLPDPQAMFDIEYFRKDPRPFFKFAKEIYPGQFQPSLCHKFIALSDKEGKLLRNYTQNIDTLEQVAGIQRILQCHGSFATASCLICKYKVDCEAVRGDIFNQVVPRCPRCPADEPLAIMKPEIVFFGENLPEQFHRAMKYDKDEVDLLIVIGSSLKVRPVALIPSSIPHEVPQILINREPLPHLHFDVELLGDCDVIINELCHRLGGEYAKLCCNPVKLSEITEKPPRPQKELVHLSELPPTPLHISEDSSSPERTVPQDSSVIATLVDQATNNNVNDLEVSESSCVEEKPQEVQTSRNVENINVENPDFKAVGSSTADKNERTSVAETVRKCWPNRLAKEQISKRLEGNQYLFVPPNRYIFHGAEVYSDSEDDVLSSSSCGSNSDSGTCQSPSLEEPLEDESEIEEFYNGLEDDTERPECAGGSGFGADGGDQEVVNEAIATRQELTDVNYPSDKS

SIRT1 [2] = target: T1, SIRT1; assay: Sirt1 activity of treated cells (SIRT1 Fluorimetric Drug Discovery Kit), Example 5; format: cell-based; design: endogenous in cells; host or cells: 3T3-L1 adipocytes and C2C12 myotubes; conditions: leucine 0.5 mM, HMB 5 μM, resveratrol 200 nM; summary in Example 5, system not stated
Procedure: All compounds were tested for potential to independently or synergistically modulate sirtuin signaling either by direct stimulation or indirect via upstream signaling via AMPK. A key outcome of Sirt1 signaling is stimulation of PGC1-α and subsequent stimulation of mitochondrial biogenesis and fatty acid oxidation. Accordingly, fatty acid oxidation, measured as palmitate-induced oxygen consumption as described below, was utilized as a sensitive first level of screening for aerobic mitochondrial metabolism. A dose-response curve for fatty acid oxidation was established for each compound studied, and a “sub-therapeutic dose” was defined as the highest dose that exerted no effect in this system. […] Following assessment of fatty acid oxidation, Sirt1 activity, AMPK activity, mitochondrial biogenesis and glucose utilization (measured as glucose-induced extracellular acidification in the absence of fatty acids in the media) were assessed for lead combinations and appropriate controls. SIRT1 activity was measured by using the SIRT1 Fluorimetric Drug Discovery Kit (BML-AK555, ENZO Life Sciences International, Inc. PA, USA). […]

Adipocytes (3T3-L1) = assay: Fatty acid oxidation by 3H-palmitate in 3T3-L1 adipocytes; format: cell-based; conditions: 4 hours, low (5 mM) glucose, resveratrol 200 nM, HMB 5 uM, leucine 0.5 mM
Procedure: High glucose medium reduced fatty acid oxidation by 46% (p<0.05).
Fatty acid oxidation was measured using ^3H-labeled palmitate oxidation, with the ^3H label trapped as water as a result of the fat oxidation. The ^3H was then measured via scintillation counter.

myotubes (C2C12) = assay: Fatty acid oxidation, palmitate-induced O2 consumption (Seahorse XF24), myotubes; format: cell-based; conditions: 24 hours treatment, leucine 0.5 mM, HMB 5 μM, resveratrol 200 nM, partner at its no-effect concentration, % change from control
UCP1 = UCP1 mRNA expression in subcutaneous adipose tissue of diet-induced obese mice; format: in vivo, c57/BL6 mice; conditions: six weeks, resveratrol 12.5 mg/kg diet, leucine 2.42%
Procedure: Expression of 18S, Sirt1, Sirt3, PGC1-α, cytochrome c oxidase subunit VIIc1 (COX 7), mitochondrial NADH dehydrogenase, nuclear respiratory factor 1 (NRF1), uncoupling protein (UCP2 (adipocyte)/UCP3 (myocyte), p53, AMPK, Akt/PKB, and GLUT4 is measured via quantitative real-time PCR using an ABI 7300 Real-Time PCR system (Applied Biosystems, Branchburg, N.J.) with a TaqMan® core reagent kit. All primers and probe sets can be obtained from Applied Biosystems TaqMan® Assays-on-Demand and utilized accordingly to manufacturer's instructions. Pooled RNA from each cell type are serial-diluted in the range of 0.0156-50 ng and were used to establish a standard curve; total RNA for each unknown sample is also diluted in this range. […] Expression of each gene of interest is then normalized using the corresponding 18S quantitation.
Six week old male c57/BL6 mice were fed a high-fat diet with fat increased to 45% of energy (Research Diets D12451) for 6 weeks to induce obesity. […] RNA was extracted from the subcutaneous adipose tissue, and gene expression was evaluated according to methods described in Example 4. […] Plasma levels of irisin were also evaluated, the results of which are described in Example 8 and illustrated in FIG. 70. […] Protein expression may also be determined by Western blot or ELISA, as in Example 8. […]

stimulation of Sirt1 activity (SIRT1 [2]): no effect
Compound: Oc1ccc(/C=C/c2cc(O)cc(O)c2)cc1 [resveratrol, 3,5,4′-Trihydroxy-trans-stilbene]
adipose tissue Sirt1 activity (SIRT1 [1]; high dose resveratrol): non-significant trend towards an increase
adipose tissue Sirt1 activity (SIRT1 [1]; low dose of resveratrol, HMB, leucine diets): Neither resveratrol nor HMB exerted significant independent effects
increase in fatty acid oxidation, low glucose (Adipocytes (3T3-L1)): no independent effect
increase in myotube fatty acid oxidation (myotubes (C2C12)): neither component exerted an independent effect
increase in UCP1 expression in white subcutaneous adipose tissue (UCP1): no independent effect
